Laboratory results published in patent publication EP1534672B1, “RETINOL DERIVATIVES, THEIR USE IN THE TREATMENT OF CANCER AND FOR POTENTIATING THE EFFICACY OF OTHER CYTOTOXIC AGENTS” (priority 2002, dated 2004).
“And” between values parts separate entries of the source, which are not always exact repeats. Equal entries are not always repeated. Marks after values point to notes of the source that are not given here.

What was measured:
[1] = tested on: Human Breast Adenocarcinoma Cell Line MDA-MB-231; experiment: Drug cytotoxicity testing (viable cell count, trypan blue exclusion, cell growth inhibition); assay type: cell-based
Summary of the method: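 A549 cells (10 × 10^3/well) and MDA-MB-231 cells (12 × 10^3/well) were left to adhere for 24 h, then exposed to drugs in medium with 5% FBS for 2 days. Viable cells were counted by trypan blue exclusion after trypsinization. Growth inhibition (%) = (control − test)/control × 100, from three determinations in six replicates each.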

[2] = tested on: Human Ovary Adenocarcinoma Cell Line SKOV-3; experiment: as above; assay type: cell-based; details: alone or in formulation at molar ratio 1:6
Procedure: MDA-MB-231 cells were propagated in MEM culture medium with 2 mM L-glutamine, 10% heat-inactivated fetal bovine serum (FBS) and antibiotics. DU 145 cells were cultured in MEM culture medium containing 2 mM L-glutamine, 1 mM sodium pyruvate, 10% FBS and antibiotics. SKOV-3 cells were cultured in McCoy's 5A culture medium, supplemented with 1,5 mM L-glutamine, 10% FBS and antibiotics. A549 cells were cultured in Ham's F-12 culture medium with 1 mM L-glutamine, 10% FBS and antibiotics. All media and supplements were purchased from Sigma-Aldrich (St.Louis, MO, USA). Cell propagation of all lines was carried out in Falcon™ 25 cm^2 cultivation flasks (Becton Dickinson Labware).
Drug cytotoxicity testing was carried out with using Falcon™ 96-well cultivation plates for adherent cells (Becton Dickinson Labware). These plates were seeded by cells either at 12 × 10^3 MDA-MB-231 cells/well, or at 12 × 10^3 DU 145 cells/well, or at 14 × 10^3 SKOV-3 cells/well, or at 10 × 10^3 A549 cells/well in a volume of 200 µL/well.
The cell cultures in cultivation plates were allowed to adhere for 24 hour of incubation. On day 1 after cell seeding, 2 µL solutions of the drugs to be tested in medium with 5% FBS was added to the cultures. In the control cultures, 2 µL of medium with 5% FBS was added as solvent control. The cells were incubated for 2 consecutive days. At the end of the incubation period adherent cells were detached by trypsinization and the number of viable cells was counted using trypan blue exclusion test and a hemocytometer. All data were derived from an average of three determinations each in six replicates. The results were expressed as mean cell number ± SE and the differences between control and test series evaluated by means of Student's t-test. The drug cytotoxicity was evaluated based on the extent of cell growth inhibition. The cell growth inhibition of the tested drugs was calculated as follows: Cell growth inhibition,% = (Control-TestSeries)/(Control) × 100 [formula]

[3] = single dose i.p. toxicity study in rats
Procedure: A single dose i.p. toxicity study in rats was carried out. […] The minimal lethal dose is thus above 100 mg/kg body weight for these compounds.

[4] = cytotoxic drug alone 10^-8 mol/L, average of positive controls in medium with 5% FBS, normal saline and saline with 2,3 mM CaCl2
[5] = cytotoxic drug alone 10^-9 mol/L, average of positive controls in medium with 5% FBS, normal saline and saline with 2,3 mM CaCl2

SMILES | inhibition at 0.01 µM ([1]; Homo sapiens, MDA-MB-231, cytotoxic drug alone 10^-8 mol/L, average of positive controls in medium with 5% FBS, normal saline and saline with 2,3 mM CaCl2, read-out: Cell Growth Inhibition, %) [%] | inhibition at 0.001 µM ([1]; Homo sapiens, MDA-MB-231, cytotoxic drug alone 10^-9 mol/L, average of positive controls in medium with 5% FBS, normal saline and saline with 2,3 mM CaCl2, read-out: Cell Growth Inhibition, %) [%] | IC50 ([1]; Homo sapiens, MDA-MB-231, cytotoxic drug alone, average of positive controls, calculated from three concentrations, read-out: IC50 mol/L (a)) [nM] | Tumor Cell Number, × 10^3 ([1]; cytotoxic drug alone 10^-7 mol/L, average of positive controls in medium with 5% FBS, normal saline and saline with 2,3 mM CaCl2) | Cell Growth Inhibition, % [1, 4] | Tumor Cell Number, × 10^3 [1, 4] | Cell Growth Inhibition, % [1, 5] | Tumor Cell Number, × 10^3 [1, 5] | inhibition at 0.1 µM ([2]; Homo sapiens, SK-OV-3, cytotoxic drug 10^-7 mol/L (100 nM), working solutions in medium with 5% FBS) [%] | inhibition at 0.01 µM ([2]; Homo sapiens, SK-OV-3, cytotoxic drug 10^-8 mol/L, working solutions in medium with 5% FBS) [%] | inhibition at 0.001 µM ([2]; Homo sapiens, SK-OV-3, cytotoxic drug 10^-9 mol/L, working solutions in medium with 5% FBS) [%] | IC50 ([2]; Homo sapiens, SK-OV-3, as concentration of cytotoxic drug, medium with 5% FBS, calculated from three concentrations, read-out: IC50 mol/L (a)) [nM] | Tumor Cell Number, × 10^3 ([2]; cytotoxic drug 10^-7 mol/L (100 nM), working solutions in medium with 5% FBS) | Tumor Cell Number, × 10^3 ([2]; cytotoxic drug 10^-7 mol/L (100 nM), working solutions in medium with 5% FBS, listed as paclitaxel) | Tumor Cell Number, × 10^3 ([2]; cytotoxic drug 10^-8 mol/L, working solutions in medium with 5% FBS) | Tumor Cell Number, × 10^3 ([2]; cytotoxic drug 10^-9 mol/L, working solutions in medium with 5% FBS) | minimal lethal dose [3]
CC(=O)O[C@H]1C(=O)[C@@]2(C)[C@H]([C@H](OC(=O)c3ccccc3)[C@]3(O)C[C@H](OC(=O)[C@H](O)[C@@H](NC(=O)c4ccccc4)c4ccccc4)C(C)=C1C3(C)C)[C@]1(OC(C)=O)CO[C@@H]1C[C@@H]2O [Paclitaxel, paclitaxel, reference compound] | 43.3 | 27.3 | 17 | 16.0±0.72 × 10^3 and 16.6±0.86 × 10^3 | 43.9* % | 32.2±1.60 × 10^3 and 32.8±1.07 × 10^3 | 27.7* % | 41.3±1.93 × 10^3 and 42.3±1.55 × 10^3 | 71.1 | 59.9 | 24.8 | 4.5 | 14.1 ± 0.98 × 10^3 | 14.6 ± 0.82 × 10^3 | 19.9 ± 1.45 × 10^3 | 37.3 ± 1.80 × 10^3 | 
CC1=C(/C=C/C(C)=C/C=C/C(C)=C/C(=O)N[C@@H](CS(=O)O)C(=O)O)C(C)(C)CCC1 (stereo in doubt) [I-2, N-(all-trans-Retinoyl)-L-cysteinesulfinic acid] |  |  |  |  |  |  |  |  |  |  |  |  |  |  |  |  | above 100 mg/kg body weight
